According to patent EP0593831A1, “Long-chain fatty alcohols as neurotrophic and memory improving agents” (MEDAFOR, priority 1992, dated 1994):

Tested on: neurones de cortex
Experiment: Survival of cortex neurons in primary culture
Type: cell-based, rat
Details: 10⁻⁵M; after 10 days of culture; versus control cells; p < 0,02, Student t (figure 3)
From the text: Les dérivés de l'invention ont été testés sur des neurones du système nerveux central en culture primaire. Les cultures sont préparées à partir de cerveaux d'embryons de rats. Les neurones proviennent de l'une des trois zones cérébrales suivantes: le cortex à partir d'embryons de 14 jours, l'hippocampe et le septum à partir d'embryons de 18 jours. Les cellules sont ensemencées à faible densité (10⁵ cellules/lamelle) sur des lamelles prétraitées avec de la poly-L-lysine. Les cellules sont maintenues dans un milieu de culture chimiquement défini. Les dérivés testés sont ajoutés le premier jour de la mise en culture des cellules à des doses variant de 10⁻⁹ M à 10⁻⁴ M. Le changement de milieu se fait tous les quatre jours avec addition des composés à tester.
On suit la survie des neurones en culture à l'aide d'un microscope en contraste de phase. De manière générale, les cellules témoins dégénèrent après 11 jours de culture alors que le nombre de cellules survivantes est significativement élevé dans les cultures traitées avec les dérivés de l'invention.
A titre d'exemple, l'effet du composé A₁, sur la survie des neurones de cortex est représenté sur la figure 3. Ce graphique représente le nombre de neurones survivants après 10 jours de culture.

## CC1=C(CCCCCCCCCCCO)C(C)(C)CCC1 [composé A₁]
  nombre de neurones survivants: significativement augmenté
